Values of other authors in patent US20250262160A1, “COMPOSITIONS FOR MODIFIED RELEASE OF ACTIVE INGREDIENTS” (PROLEVI BIO AB, priority 2022, published 2025).
Like-named read-outs stand apart in the source and are kept apart here.

Assays:
[1] = assumed parameter for IVIVC, as reported in literature

| Half-life (T1/2) [1] | oral bioavailability (BA) [1] | Half-life (t½) after baseline (120 ng/dL) correction (estimated, parameter used for IVIVC) | elimination half-life (in adults) | biological half-life (in vivo) | estimated baseline corrected half-life (in vivo) | bioavailability (parameter used for IVIVC) | Tmax (thyroidectomized patients administered exogenous hormone) | T1/2 half-life (thyroidectomized patients administered exogenous hormone, after last LT3 dose withdrawal) | SMILES | Volume of distribution (Vd) ([1]; body weight 75 Kg) | Volume of distribution (Vd) (body weight 75 kg euthyroid individual, parameter used for IVIVC) |
| --- | --- | --- | --- | --- | --- | --- | --- | --- | --- | --- | --- |
| 0.75 h | 15% | – | – | – | – | – | – | – | COc1ccc2[nH]cc(CCNC(C)=O)c2c1 [melatonin] | 1602 L | – |
| – | – | 4 h | 23 to 25 h | 2.5 days | 4 h | 95% | 2.9 h | 3.62 h | N[C@@H](Cc1cc(I)c(Oc2ccc(O)c(I)c2)c(I)c1)C(=O)O [Formulation T3, triiodothyronine] | – | 0.2 L/kg |
